In the supplement of paper PMC10307832:

Tests used:
Venetoclax = compound: CC1(C)CCC(CN2CCN(c3ccc(C(=O)NS(=O)(=O)c4ccc(NCC5CCOCC5)c([N+](=O)[O-])c4)c(Oc4cnc5[nH]ccc5c4)c3)CC2)=C(c2ccc(Cl)cc2)C1 [Venetoclax]; assay: relative viability (nuclei count vs DMSO), 5 days (fraction); higher = more cells survive
Outline: (§1)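 For viability, nuclei in each treated well were divided by nuclei in vehicle wells and the median across plates was taken. Lung cancer cell lines in 1536-well plates were pinned with five library-drug doses (not always all listed) spaced by √10, cultured 5 days without medium change, and imaged at 4× after Hoechst staining, with plates passing only at control CV below 25% and at least one doubling.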

Selumetinib = compound: Cn1cnc2c(F)c(Nc3ccc(Br)cc3Cl)c(C(=O)NOCCO)cc21 [Selumetinib]; assay: as above
Outline: as §1

Cell Line	relative viability (Venetoclax; 0.01 µM)	relative viability (Venetoclax; 0.03162 µM)	relative viability (Venetoclax; 0.1 µM)	relative viability (Venetoclax; 0.3162 µM)	relative viability (Venetoclax; 1 µM)	relative viability (Selumetinib; 0.02 µM)	relative viability (Selumetinib; 0.06325 µM)	relative viability (Selumetinib; 0.2 µM)	relative viability (Selumetinib; 0.6325 µM)
NCI-H1792	0.892	1.06	0.918	0.98	0.856	0.901	0.728	0.827	0.689
NCI-H1793	0.933	0.993	0.787	0.887	0.784	0.709	0.682	0.561	0.457
NCI-H1915	0.954	1.03	0.937	0.991	0.92	1.07	0.84	0.666	0.581
NCI-H1944	1.14	0.937	0.951	1.05	0.891	0.946	0.791	0.673	0.643
NCI-H1975	0.99	0.935	0.889	0.939	0.884	0.952	0.958	0.939	0.663
NCI-H1993	0.892	0.999	0.904	0.91	0.838	0.794	0.727	0.728	0.762
NCI-H2009	1.05	1.01	0.991	0.974	0.882	0.925	0.639	0.574	0.385
NCI-H2023	0.932	1.05	1.05	0.953	0.859	0.987	0.841	0.862	0.758
NCI-H2085	0.873	1.08	1.03	0.969	0.928	0.863	0.844	0.881	0.788
NCI-H2087	0.921	1.03	0.821	1.01	1.02	0.849	0.672	0.48	0.318
NCI-H2126	1	1.07	0.992	0.996	0.953	0.932	0.883	0.857	0.77
NCI-H2170	0.863	0.944	0.904	0.91	0.877	0.982	0.97	0.896	0.937
NCI-H2228	0.942	1.03	0.86	0.891	0.965	0.898	0.958	0.943	0.797
NCI-H2342	1	0.984	1.03	1	0.967	0.888	0.896	0.943	0.946
NCI-H2347	1.06	1.12	0.965	0.978	0.977	0.917	0.667	0.492	0.386
NCI-H2405	1.03	1.14	0.978	0.996	0.914	1.02	0.923	0.861	0.686
NCI-H3122	1.06	1	0.967	0.962	0.983	0.846	0.75	0.697	0.67
PC-3 [JPC-3]	0.995	1.07	1.06	1.04	0.917	1.01	1	0.869	0.787
PC-14	1	1.08	1.03	0.989	0.818	0.931	0.932	0.935	0.844
RERF-LC-KJ	0.987	1.06	0.972	0.909	0.926	1	0.936	0.968	0.886
SK-LU-1	0.953	1.16	0.991	1.01	1.02	1.07	0.904	0.8	0.484
SK-MES-1	0.961	1.05	0.993	1	0.902	0.921	0.885	0.698	0.527
SW 900	0.795	0.954	0.716	0.878	0.836	0.805	0.776	0.79	0.809
SW 1573	0.974	0.985	0.911	0.969	0.877	0.882	0.814	0.754	0.833
